The subject of assay [1] is Madin Darby canine kidney (MDCK) cells. The experiment in a line: cells. The following applies: Canis lupus familiaris, cytotoxic concentration, positive control drug = ribavirin, read-out: CPE Inhibition test IC50. It is filed as cell-based.
Assay [2] concerns African green monkey kidney (CV-1) cells. Nature of the assay: cells. Type of assay: cell-based. The following applies: Chlorocebus sabaeus, read-out: CPE Inhibition test IC50.
For assay [3], the system named is African green monkey kidney (MA-104) cells. Nature of the assay: cells. Particulars: Chlorocebus sabaeus, MA104, cytotoxic concentration, positive control drug = ribavirin, read-out: CPE Inhibition test IC50. It is filed as cell-based.
The subject of assay [4] is uninfected cells. The experiment in a line: Cytotoxicity, microscopic reading of uninfected cells in the CPE inhibition test (rhinovirus host cells, not named). Type of assay: cell-based. Here is the method: (§1) Cytotoxicity of each test compound is also evaluated as follows. In the initial CPE inhibition tests, two wells of uninfected cells treated with each concentration of test compound are run in parallel with the infected, treated wells. When the CPE is determined microscopically, the toxicity control cells are also examined microscopically for any changes in cell appearance compared to normal uninfected, untreated control cells. Changes, which may manifest as enlargement, granularity, ragged edges, filmy appearance, rounding, detachment from the surface of the well, or other changes, are given a designation of T (100% toxic), PVH (partially toxic-very heavy-80%), PH (partially toxic-heavy-60%), P (partially toxic-40%), PS (partially toxic-slight-20%) or 0 (no toxicity-0%) in accordance with the degree of cytotoxicity observed. […] A neutral red IC50 is also determined based on uptake of neutral red dye by the toxicity control cells.

Assay [5] concerns human lung carcinoma (A549) cells. Nature of the assay: cells. It is filed as cell-based. Particulars: read-out: Neutral Red Uptake test IC50.
Assay [6] has as its system African green monkey kidney (MA-104) cells. The experiment in a line: Cytotoxicity, neutral red uptake by toxicity control cells. Particulars: Chlorocebus sabaeus, MA104, cytotoxic concentration, positive control drug = ribavirin, read-out: Neutral Red Uptake test IC50. It is filed as cell-based.
For assay [7], the system named is uninfected cells. Nature of the assay: Cytotoxicity, neutral red uptake by toxicity control cells (rhinovirus host cells, not named). It is filed as cell-based. Particulars: read-out: Neutral Red Uptake test IC50. On the procedure:
as §1

The test system of assay [8] is viral immediate early (IE1) or late glycoprotein (gB) mRNA. The experiment in a line: Northern blot of viral mRNA in infected HUVEC. Type of assay: cell-based, CMV. Particulars: 200 µM A771726, 48 hours. Here is the method:
Northern blot analysis was employed to determine whether A771726 quantitatively affected transcription of viral immediate early (IE1) or late glycoprotein (gB) mRNA.
HUVEC monolayers in 6-well culture plates were inoculated with CMV strain VHL/E (0.5 PFU/cell) in the presence or absence of 200 µM A771726 and/or 200 µM uridine (6 wells/treatment) as described above, and incubated for 48 hours. […] Total cytoplasmic RNA was isolated from each culture, by 18-hour ultracentrifugation of guanidine isothiocyanate/BME extracts overlayed on cesium chloride cushions. […] 50 ng of full-length IE1 and gB were incubated in a 50 µl PCR reaction including a nucleotide triphosphate mix containing 700 nM α-[^32P]dCTP (Amersham) and either IE1 primers [IE1 sense: 5' […] 3' (SEQ ID NO: 1) and IE1 antisense: 5'[…] 3' (SEQ ID NO: 2)] or gB primers [gB sense: 5 […] 3' (SEQ ID NO: 3) and gB antisense: 5' […] 3' (SEQ ID NO: 4)]. A cDNA probe for GAPDH was radiolabelled using a random priming kit (Decaprime II, Ambion, Inc., Austin TX) as previously described. […] Membranes were hybridized, washed, and bound probe was detected by autoradiography as previously described. Membranes were stripped and reprobed for GAPDH, and scanning densitometry was used to quantitate IE1 and gB band densities, and to normalize these values to those of GAPDH.

The next assay relates to CMV strain VHL/E. Nature of the assay: Transmission electron microscopy of virion morphology in CMV-infected HUVEC. It is filed as cell-based. Particulars: 200 µM A771726, 4-7 days. Here is the method: Transmission electron microscopy.was employed to directly examine virion morphology within A771726-treated or untreated CMV-infected HUVEC. HUVEC monolayers in 6-well culture plates were inoculated with CMV strain VHL/E (1.0 PFU/cell) in the presence or absence of 200 µM A771726 as described above, and incubated for 4-7 days. Cells were harvested by brief trypsin digestion, washed twice in PBS, then fixed by the.addition of 1 ml 2% phosphate buffered gluteraldehyde and again pelleted by centrifugation. Specimens were post-fixed in 1% phosphate buffered osmium tetroxide (1 hour), then dehydrated in graded ethanol washes. Specimens were embedded in Spur low viscosity embedding media (SEM). Blocks were cured for a minimum of 12 hours at 70°C. Thin sections (approximately 100 nm) were cut from cured blocks using an ultramicrotome (LKB Nova), and mounted on 200 mesh copper grids. Grids were heavy metal-stained using a standard two-step uranyl acetate/lead citrate technique, then examined and photographed at 80 kV with a Zeiss EM900 transmission electron microscope by an individual with no knowledge of the nature of the investigation.

The target of the next assay is T1, HSV DNA polymerase (Human herpesvirus 1, UniProt P04293).
T1 construct: a biochemical assay of HSV DNA polymerase activity in HSV-infected cells; endogenous in cells
The experiment in a line: HSV DNA polymerase biochemical assay. Particulars: all HSV isolates in VERO cells and HUVEC.

A further assay deals with HSV. The experiment in a line: Transmission electron microscopy of virion morphology in HSV-infected HUVEC. Type of assay: cell-based.
Where [9] appears, read: run with Parainfluenza Type 3 Virus.
Setting [10] is: run with Respiratory Syncytial Virus A.

The results in this text go back to patent EP1169036B1, “ANTI-VIRAL USES OF LEFLUNOMIDE PRODUCTS” (priority 1998, dated 1999).

SMILES strings stand for the structures. Like-named read-outs stand apart in the source and are kept apart here. A value given as a limit tells only on which side of the number the result lay.

T1 sequence (P10226 whole entry): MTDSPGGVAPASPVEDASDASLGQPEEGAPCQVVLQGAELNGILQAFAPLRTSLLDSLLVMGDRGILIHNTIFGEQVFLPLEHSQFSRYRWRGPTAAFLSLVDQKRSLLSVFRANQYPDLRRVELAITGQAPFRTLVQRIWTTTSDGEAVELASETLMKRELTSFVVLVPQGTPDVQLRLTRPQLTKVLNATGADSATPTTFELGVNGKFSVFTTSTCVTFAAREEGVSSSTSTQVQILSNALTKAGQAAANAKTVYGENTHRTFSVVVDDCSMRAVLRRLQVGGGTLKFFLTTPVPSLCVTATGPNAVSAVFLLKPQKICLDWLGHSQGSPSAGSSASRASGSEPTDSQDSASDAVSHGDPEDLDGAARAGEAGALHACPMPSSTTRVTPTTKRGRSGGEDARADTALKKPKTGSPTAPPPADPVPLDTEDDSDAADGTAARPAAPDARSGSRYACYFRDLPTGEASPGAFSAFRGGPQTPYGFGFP
T1 sequence (P04293 whole entry): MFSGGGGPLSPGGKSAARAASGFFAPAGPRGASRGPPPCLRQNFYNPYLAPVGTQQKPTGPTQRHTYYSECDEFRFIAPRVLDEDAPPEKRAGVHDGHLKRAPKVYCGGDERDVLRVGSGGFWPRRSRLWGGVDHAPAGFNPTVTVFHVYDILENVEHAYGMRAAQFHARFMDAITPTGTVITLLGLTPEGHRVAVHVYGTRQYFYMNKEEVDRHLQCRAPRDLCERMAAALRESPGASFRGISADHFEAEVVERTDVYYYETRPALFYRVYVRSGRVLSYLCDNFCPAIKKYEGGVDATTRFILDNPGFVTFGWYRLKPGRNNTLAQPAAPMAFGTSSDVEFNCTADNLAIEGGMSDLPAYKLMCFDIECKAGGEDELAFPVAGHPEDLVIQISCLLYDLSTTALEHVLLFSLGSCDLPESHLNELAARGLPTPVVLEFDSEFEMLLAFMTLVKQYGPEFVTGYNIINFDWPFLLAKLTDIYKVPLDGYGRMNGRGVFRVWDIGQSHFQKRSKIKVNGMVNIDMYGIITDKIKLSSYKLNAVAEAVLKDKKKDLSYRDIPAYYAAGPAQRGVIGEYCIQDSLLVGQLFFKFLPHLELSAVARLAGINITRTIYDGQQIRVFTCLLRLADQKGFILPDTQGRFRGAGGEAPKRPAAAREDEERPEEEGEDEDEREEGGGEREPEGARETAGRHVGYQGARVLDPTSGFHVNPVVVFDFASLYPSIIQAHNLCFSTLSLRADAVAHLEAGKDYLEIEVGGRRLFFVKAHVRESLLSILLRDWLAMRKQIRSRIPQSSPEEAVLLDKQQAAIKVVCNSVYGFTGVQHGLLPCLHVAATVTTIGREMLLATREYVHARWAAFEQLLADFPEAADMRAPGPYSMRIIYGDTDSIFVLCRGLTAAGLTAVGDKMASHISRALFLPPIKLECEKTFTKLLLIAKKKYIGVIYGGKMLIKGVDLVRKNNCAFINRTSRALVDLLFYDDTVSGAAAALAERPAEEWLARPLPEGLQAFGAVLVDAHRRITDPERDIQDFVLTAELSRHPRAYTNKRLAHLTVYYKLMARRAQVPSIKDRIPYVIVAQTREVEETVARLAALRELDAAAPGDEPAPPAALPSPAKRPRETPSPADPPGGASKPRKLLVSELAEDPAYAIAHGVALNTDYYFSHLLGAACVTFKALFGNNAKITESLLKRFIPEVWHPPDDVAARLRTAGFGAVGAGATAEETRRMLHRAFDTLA

As a reminder, the IC50 is the concentration that gives 50% inhibition. Consider `C/C(O)=C(\C#N)C(=O)Nc1ccc(C(F)(F)F)cc1` [Compound A771726, N-(4-trifluoromethylphenyl)-2-cyano-3-hydroxycrotonamide], for which the 50% inhibitory concentration (IC50) was 29 µM in assay [1] (run with Influenza A (H1N1)); 30 µM in assay [1] (run with Influenza A (H3N2)); 50 µM in assay [1] (run with Influenza B); above 660 µM in assay [2]; 30 µM in assay [3] (setting [9]); 20 µM in assay [3] (setting [10]). Besides, the IC50 in the assay on uninfected cells [4] stood at 1000 µM; in assay [5] it was 580 µM; in assay [6] (setting [9]), 50 µM; in assay [6] (setting [10]), 143 µM; in the assay with uninfected cells [7] it was 500 µM. Moreover, the “transcription of IE1 or gB genes” value in assay [8] is reported as “no inhibitory effect”. The “virion morphology in the cytoplasm” value in the assay with CMV strain VHL/E is reported as “viral particles appeared not to have matured far beyond the 100 nM naked capsid stage”. The “HSV DNA polymerase activity” value on HSV DNA polymerase was “no detectable inhibitory effect”. Also, the “virion morphology, tegument acquisition” value in the assay on HSV is “appear not to acquire tegument”.
